Results: US5518988A, “Method of counteracting an ethylene response in plants” (North Carolina State University, priority 1994, dated 1996)

What was measured:
Bananas = test: Banana ripening (chlorophyll disappearance); assay type: in vivo, bananas (Musa sapientum)
Experimental: Bananas were individually placed in a 3 l jar. 1-Methylcyclopropene was injected into the jar at a determined concentration. The plant material was then aerated and 1 ml/l of ethylene was added for 12 hours. Controls were held in jars without chemical treatment. Chlorophyll measurement was made as previously described in Sisler and Wood, 1988). The experiment was done 7 days after 1-methylcyclopropene treatment.

ethylene receptor [1] = test: 14C-ethylene binding to carnation petals; design: species or system carnation (Dianthus caryophyllus); details: flowers treated with 5 nl/l, stored 4 days at room temperature at 4° C. before binding experiment (FIG. 4)
Experimental: Triplicate samples of 3 g cut carnations' petals were placed in a 2.51 desiccator containing ^14 C-ethylene-mercuric perchlorate complex (110 mCi/mM) in a 25 ml Erlenmeyer flask. Then, an excess of […] lithium chloride was added to the ethylene-mercuric perchlorate complex to release the gaseous ethylene. The mixture was stirred for 6 minutes. To determine the amount of binding, 3 ml of unlabelled ethylene was added in one desiccator. After 2 hours of ethylene exposure, the desiccators were opened and the samples were aerated for 4 minutes. Each sample was then placed in a 250 ml jar. 0.2 Ml of mercuric perchlorate on a 0.5 cm^2 piece of fiber-glass filter in a scintillation vial was then added. After 18 hours, the scintillation vials were removed, scintillation fluid added and the radioactivity counted for each sample.
To determine if the 1-methylcyclopropene acted on the ethylene receptor, flowers were treated with 5 nl/l of 1-methylcyclopropene and stored for 4 days at room temperature at 4° C. before the ethylene binding experiment. Carnation petals preincubated with 1-methylcyclopropene and control petals which had not been incubated with 1-methylcyclopropene were then incubated in the presence of ^14 C-ethylene. One sample representing the control was incubated with a saturating concentration of unlabelled ethylene in the presence of ^14 C-ethylene. […]

carnations [2] = test: Protection of in vivo cut carnations against exogenous ethylene (pre-treatment with compound); design: species or system carnation (Dianthus caryophyllus)
Experimental: The treatment of carnations with ethylene hastens the process of senescence, producing a petal in-rolling phenomena (Halevy and Mayak, 1981). Carnations at stage II, with low ethylene production and no visible signs of senescence (Woodson, 1987) were treated with 1-methylcyclopropeneat different concentration for 6 hours before adding […] of ethylene for 1 hour.
1-Methylcyclopropene was added for various times before the application of exogenous ethylene. […] Treatment with about 250 to 300 nl/l of 1-methylcyclopropene for five minutes was enough to protect the flowers. Treated for 24 hours, with 0.5 nl/l protected against 1 ml/l of ethylene.
Flowers were treated with 5 nl/l of product during 6 hours, then, stored for 10 days at room temperature. One ml/l of ethylene was then added over 18 hours. Ethylene had no effect on the treated carnations 10 days after the 1-methylcyclopropene treatment (data not shown). The binding of 1-methylcyclopropene on carnations seems to be irreversible.
Cut carnations at stage I and stage III were treated with 1-methylcyclopropene. For young carnations, the concentration of 1-methylcyclopropene giving a protective effect was about 1.25 and 2.5 nl/l. For these, the protection against ethylene was total. For old carnations, rates between 2.5 and 5 nl/l of 1-methylcyclopropene were sufficient to give a response, but total protection was not achieved. Total protection of older carnations was only achieved with 10 nl/l of 1-methylcyclopropene (data not shown).

tomatoes = test: Tomato ripening after ethylene treatment; assay type: in vivo, tomatoes (Lycopersicon esculentum); details: applied for 12 hours before the ethylene treatment
Experimental: Tomato seeds were washed with NaOCl (10%) and rinsed with water. The seeds were placed on wetted filter paper with 10 mM sodium phosphate buffer at pH 5.8. The germination was done in the dark. When the seedlings were about 1 mm height, 30 seeds by sample were placed on wet filter paper in a 0.5 l jar. 1-Methylcyclopropene was added over 24 hours before adding 10 μl/l ethylene for 5 days.
When 1-methylcyclopropene was applied for 12 hours before the ethylene treatment, only 10 nl/l of compound was enough to preserve tomatoes.

carnations [3] = test: Stopping the senescent process (petal in-rolling) of carnations due to exogenous and endogenous ethylene; assay type: in vivo, carnation (Dianthus caryophyllus)
Experimental: Flowers in a pre-senescent stage were treated with 5 nl/l of 1-methylcyclopropene and the senescent process was observed.
The carnations need to have an exogenous ethylene exposure at least for 6 hours to have a visible sign of senescence. Treatment with 3 nl/l of 1-methylcyclopropene is enough to stop that process. […] 1-methylcyclopropene seems to reduce and prevent the autocatalytic production of ethylene.
The ability of 1-methylcyclopropene to stop the senescence process was observed by adding ethylene over 6 hours. […] Thereafter 1-methylcyclopropene was added. The process of senescence was stopped by the binding of 1-methylcyclopropene on the ethylene receptor and giving a molecular response.

carnations [4] = test: Ethylene production of carnation flowers; assay type: in vivo, carnation (Dianthus caryophyllus); details: compound applied at the ethylene climacteric; thereafter ethylene production measured
Experimental: Ethylene production was followed from the beginning of the ethylene climacteric production. […] 1- Methylcyclopropene was applied. Thereafter ethylene production was measured.

ethylene receptor [5] = test: Diffusion of 3H 1-methylcyclopropene from carnation petals; assay type: binding, carnation (Dianthus caryophyllus)
Experimental: In order to label the ethylene receptor, 1-methylcyclopropene was labelled with tritium and the specific activity obtained was 60 mCi/mM. An eventual diffusion of the compound was studied on carnations. The flowers were treated with 1-methylcyclopropene, and with large amounts of ethylene. Control flowers were treated with 1-methylcyclopropene alone. The diffusion was followed for 7 days. […] When the experiment was made at 4° C., the diffusion was nonexistent.

SMILES	Ki (chlorophyll measurement) (Bananas; 1 ml/l ethylene for 12 hours, measured 7 days after treatment) [nl/l]	Ki for chlorophyll disappearance (Bananas; experiments done in the dark) [ul/l]	Ki for chlorophyll disappearance (Bananas; experiments done in the light) [ul/l]	time for which ripening was prevented (Bananas; treated bananas, fruits turned brown after this period)	specific 14C-ethylene binding (ethylene receptor [1])	effect of ethylene on treated carnations 10 days after treatment (carnations [2]; 5 nl/l for 6 hours, stored 10 days at room temperature, then 1 ml/l ethylene over 18 hours)	minimal concentration preventing the ethylene process, compared with that at the other ethylene levels (carnations [2]; flowers treated with 1 ml/l of ethylene)	concentration to protect the flower against ethylene action, compared with STS, DACP or NBD (carnations [2]; in vivo carnations)	concentration achieving total protection (carnations [2]; old cut carnations (stage III)) [nl/l]	minimal concentration preventing the ethylene process (flowers looked like control without ethylene) (carnations [2]; stage II carnations, 6 hours treatment before 10 or 1000 ml/l ethylene for 1 hour, after 4 days) [nl/l]	concentration needed to protect the flowers against exogenous ethylene (carnations [2]; treated for 24 hours, against 1 ml/l of ethylene) [nl/l]	extent of protection against ethylene (carnations [2]; young cut carnations (stage I), about 1.25 and 2.5 nl/l)	concentration enough to preserve tomatoes (tomatoes) [nl/l]	senescent process of flowers treated in a pre-senescent stage (carnations [3]; 5 nl/l, observed 15 days later, untreated control in-rolled one day later)	concentration enough to stop the senescence process due to exogenous ethylene exposure (carnations [3]; after exogenous ethylene exposure of at least 6 hours) [nl/l]	process of senescence after in-rolling had begun (carnations [3]; ethylene over 6 hours, in-rolling begun, thereafter compound added)	petal in-rolling of carnations treated with ethylene and then compound (carnations [3]; ethylene, then 1-methylcyclopropene)	ethylene production, control versus treated flowers (FIG. 3) (carnations [4])	diffusion of the labelled compound from carnations (ethylene receptor [5]; experiment made at 4° C.)	diffusion of the labelled compound from carnations (ethylene receptor [5]; followed for 7 days, flowers without ethylene treatment)
CC1=CC1 [1-methylcyclopropene]	0.4	40	1.2	about 15 days	totally inhibited	no effect	the same	much lower	10	2.5	0.5	total	10	did not show a senescent process	3	stopped	no visible sign of the phenomenon	considerably lower		
CC1=CC1 [^3 H 1-methylcyclopropene]																			nonexistent	a little diffusion
